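Method: 48-hour compound exposure of cells in 96-well plates, five concentrations, linear interpolation of endpoints. GI50 is the concentration that inhibits growth by half.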 The source made the active and inactive calls. No stated cut-off is given here; in the data, active = GI50 up to about 1.1 µM and inactive = higher.
Legend:
Test in all cases: DTP human tumour cell line panel, 48 h
[1] = system: 786-0
[2] = system: A498
[3] = system: A549
[4] = system: ACHN
[5] = system: BT-549
[6] = system: CAKI-1
[7] = system: CCRF-CEM
[8] = system: COLO 205
[9] = system: DU-145
[10] = system: EKVX
[11] = system: HCC 2998
[12] = system: HCT-116
[13] = system: HCT-15
[14] = system: HL-60
[15] = system: HOP-62
[16] = system: HOP-92
[17] = system: HT-29
[18] = system: Hs-578T
[19] = system: IGROV-1
[20] = system: K562
[21] = system: KM12
[22] = system: LOX IMVI
[23] = system: M14
[24] = system: MCF7
[25] = system: MDA-MB-231
[26] = system: MDA-MB-435
[27] = system: MDA-N
[28] = system: MOLT-4
[29] = system: Malme-3M
[30] = system: NCI-H23
[31] = system: NCI-H460
[32] = system: NCI-H522
[33] = system: NCI/ADR-RES
[34] = system: OVCAR-3
[35] = system: OVCAR-4
[36] = system: OVCAR-5
[37] = system: OVCAR-8
[38] = system: PC-3
[39] = system: RPMI-8226
[40] = system: RXF 393
[41] = system: SF-268
[42] = system: SF-295
[43] = system: SF-539
[44] = system: SK-MEL-28
[45] = system: SK-MEL-2
[46] = system: SK-MEL-5
[47] = system: SK-OV-3
[48] = system: SN12C
[49] = system: SNB-19
[50] = system: SNB-75
[51] = system: SR
[52] = system: SW-620
[53] = system: TK-10
[54] = system: U-251
[55] = system: UACC-257
[56] = system: UACC-62
[57] = system: UO-31
[58] = system: NCI-H226
[59] = system: T47D

## Cc1cccc2c(N)c3cccc(C(=O)NCCN4CCOCC4)c3nc12
[1]
  GI50: 0.218 µM (active)
[2]
  GI50: 1.31 µM (inactive)
[3]
  GI50: 0.192 µM (active)
[4]
  GI50: 0.101 µM (active)
[5]
  GI50: 1.93 µM (inactive)
[6]
  GI50: 0.675 µM (active)
[7]
  GI50: 0.248 µM (active)
[8]
  GI50: 0.294 µM (active)
[9]
  GI50: 0.482 µM (active)
[10]
  GI50: 0.664 µM (active)
[11]
  GI50: 1.48 µM (inactive)
[12]
  GI50: 0.0889 µM (active)
[13]
  GI50: 0.461 µM
[14]
  GI50: 0.362 µM (active)
[15]
  GI50: 0.363 µM (active)
[16]
  GI50: 3.48 µM (inactive)
[17]
  GI50: 0.116 µM (active)
[18]
  GI50: 0.0849 µM (active)
[19]
  GI50: 0.224 µM (active)
[20]
  GI50: 0.203 µM (active)
[21]
  GI50: 0.301 µM (active)
[22]
  GI50: 0.23 µM (active)
[23]
  GI50: 0.495 µM (active)
[24]
  GI50: 0.265 µM (active)
[25]
  GI50: 0.759 µM (active)
[26]
  GI50: 0.57 µM (active)
[27]
  GI50: 0.6 µM (active)
[28]
  GI50: 0.0278 µM (active)
[29]
  GI50: 0.28 µM (active)
[30]
  GI50: 0.33 µM (active)
[31]
  GI50: 0.605 µM (active)
[32]
  GI50: 0.182 µM (active)
[33]
  GI50: 4.35 µM (inactive)
[34]
  GI50: 1.47 µM (inactive)
[35]
  GI50: 0.762 µM (active)
[36]
  GI50: 0.627 µM (active)
[37]
  GI50: 0.249 µM (active)
[38]
  GI50: 0.436 µM (active)
[39]
  GI50: 0.493 µM (active)
[40]
  GI50: 0.697 µM (active)
[41]
  GI50: 0.0603 µM (active)
[42]
  GI50: 0.318 µM (active)
[43]
  GI50: 0.171 µM (active)
[44]
  GI50: 1.45 µM (inactive)
[45]
  GI50: 1.11 µM (active)
[46]
  GI50: 0.853 µM (active)
[47]
  GI50: 1.05 µM (active)
[48]
  GI50: 0.364 µM (active)
[49]
  GI50: 0.236 µM (active)
[50]
  GI50: 0.13 µM (active)
[51]
  GI50: 0.274 µM (active)
[52]
  GI50: 0.166 µM (active)
[53]
  GI50: 2.1 µM (inactive)
[54]
  GI50: 0.531 µM (active)
[55]
  GI50: 0.912 µM (active)
[56]
  GI50: 0.984 µM (active)
[57]
  GI50: 0.46 µM (active)

## COC(=O)[C@@H]1C=C[C@@H](C#N)n2c(=O)n(-c3ccccc3)c(=O)n21
[1]
  GI50: 25.2 µM (inactive)
[2]
  GI50: 41.1 µM (inactive)
[4]
  GI50: 38.5 µM (inactive)
[5]
  GI50: 34 µM (inactive)
[6]
  GI50: 98.9 µM (inactive)
[7]
  GI50: 25.9 µM (inactive)
[8]
  GI50: 40.3 µM (inactive)
[9]
  GI50: 25.5 µM (inactive)
[10]
  GI50: 35.5 µM (inactive)
[11]
  GI50: 33.3 µM (inactive)
[12]
  GI50: 24.5 µM (inactive)
[13]
  GI50: 30.1 µM
[15]
  GI50: 13.3 µM (inactive)
[16]
  GI50: 45.4 µM (inactive)
[17]
  GI50: 31.1 µM (inactive)
[18]
  GI50: 23.7 µM (inactive)
[19]
  GI50: 32.6 µM (inactive)
[20]
  GI50: 37.9 µM (inactive)
[21]
  GI50: 28.8 µM (inactive)
[22]
  GI50: 10.6 µM (inactive)
[23]
  GI50: 25.9 µM (inactive)
[24]
  GI50: 19.5 µM (inactive)
[25]
  GI50: 19.7 µM (inactive)
[26]
  GI50: 42 µM (inactive)
[28]
  GI50: 34.7 µM (inactive)
[58]
  GI50: 15.6 µM (inactive)
[30]
  GI50: 36.9 µM (inactive)
[32]
  GI50: 14.8 µM (inactive)
[33]
  GI50: 26.4 µM (inactive)
[34]
  GI50: 13.9 µM (inactive)
[35]
  GI50: 36.3 µM (inactive)
[36]
  GI50: 29.4 µM (inactive)
[37]
  GI50: 23.3 µM (inactive)
[39]
  GI50: 31.8 µM (inactive)
[41]
  GI50: 27.9 µM (inactive)
[42]
  GI50: 23.8 µM (inactive)
[43]
  GI50: 20.8 µM (inactive)
[44]
  GI50: 17 µM (inactive)
[46]
  GI50: 46.3 µM (inactive)
[47]
  GI50: 47.5 µM (inactive)
[48]
  GI50: 26.2 µM (inactive)
[49]
  GI50: > 100 µM (inactive)
[50]
  GI50: 26.7 µM (inactive)
[51]
  GI50: 20.6 µM (inactive)
[52]
  GI50: 41.9 µM (inactive)
[59]
  GI50: 24.2 µM (inactive)
[53]
  GI50: 82.2 µM (inactive)
[54]
  GI50: 33.8 µM (inactive)
[55]
  GI50: 39.4 µM (inactive)
[56]
  GI50: 36.6 µM (inactive)
[57]
  GI50: 41.9 µM (inactive)

## OCC1OC(Oc2cc(O)cc(/C=C\c3ccc(O)cc3)c2)C(O)C(O)C1O (stereo not given)
[1]
  GI50: > 100 µM (inactive)
[2]
  GI50: > 100 µM (inactive)
[3]
  GI50: > 100 µM (inactive)
[4]
  GI50: > 100 µM (inactive)
[5]
  GI50: > 100 µM (inactive)
[6]
  GI50: > 100 µM (inactive)
[7]
  GI50: > 100 µM (inactive)
[9]
  GI50: > 100 µM (inactive)
[10]
  GI50: > 100 µM (inactive)
[12]
  GI50: > 100 µM (inactive)
[13]
  GI50: > 100 µM
[14]
  GI50: > 100 µM (inactive)
[15]
  GI50: > 100 µM (inactive)
[16]
  GI50: > 100 µM (inactive)
[17]
  GI50: > 100 µM (inactive)
[18]
  GI50: > 100 µM (inactive)
[19]
  GI50: > 100 µM (inactive)
[20]
  GI50: > 100 µM (inactive)
[21]
  GI50: > 100 µM (inactive)
[22]
  GI50: > 100 µM (inactive)
[24]
  GI50: > 100 µM (inactive)
[25]
  GI50: > 100 µM (inactive)
[26]
  GI50: > 100 µM (inactive)
[27]
  GI50: > 100 µM (inactive)
[28]
  GI50: > 100 µM (inactive)
[58]
  GI50: > 100 µM (inactive)
[31]
  GI50: > 100 µM (inactive)
[32]
  GI50: > 100 µM (inactive)
[33]
  GI50: > 100 µM (inactive)
[34]
  GI50: > 100 µM (inactive)
[35]
  GI50: > 100 µM (inactive)
[36]
  GI50: > 100 µM (inactive)
[37]
  GI50: > 100 µM (inactive)
[38]
  GI50: > 100 µM (inactive)
[39]
  GI50: > 100 µM (inactive)
[40]
  GI50: > 100 µM (inactive)
[42]
  GI50: > 100 µM (inactive)
[43]
  GI50: > 100 µM (inactive)
[44]
  GI50: > 100 µM (inactive)
[45]
  GI50: > 100 µM (inactive)
[46]
  GI50: > 100 µM (inactive)
[47]
  GI50: > 100 µM (inactive)
[48]
  GI50: > 100 µM (inactive)
[49]
  GI50: > 100 µM (inactive)
[50]
  GI50: > 100 µM (inactive)
[51]
  GI50: > 100 µM (inactive)
[52]
  GI50: > 100 µM (inactive)
[53]
  GI50: > 100 µM (inactive)
[54]
  GI50: > 100 µM (inactive)
[55]
  GI50: > 100 µM (inactive)
[56]
  GI50: > 100 µM (inactive)
[57]
  GI50: > 100 µM (inactive)
